Experimental data as given in US12351557B2, “Chemical compound manufacture, new salt form, and therapeutic uses thereof” (Eustralis Pharmaceuticals Limited (Trading As Pressura …, priority 2018, dated 2025).
Structures can show the parent of a compound that is named as a salt. Where two headings read alike, the source gives them in different places.

Legend:
[1] = Solubility of 2HCl salt in solvents; type: physicochemical
Protocol: A summary of the physicochemical characteristics of 2HCl salt of Compound of Formula (1) is provided below.
Solubility: very soluble in water ([…]0.2 mg/μL), freely soluble in ethanol (0.1-0.2 mg/μL), sparingly soluble in 1-propanol and acetonitrile (0.01-0.03 mg/μL).

[2] = pH of solution in purified water; type: physicochemical; conditions: 5 mg/mL solution in purified water
Protocol: pH: 2 to 3 (5 mg/mL solution in purified water).

[3] = Hydroscopicity (water sorption at 90% RH); type: physicochemical
[4] = Stability study, samples stored at 40° C./75% RH; type: physicochemical
[5] = Polymorphism risk assessment; conditions: 2HCl salt physicochemical summary
Protocol: Decomposition/melting range temperature and presence of solvate molecules are estimated from thermal analyses. The polymorphism risk was assessed base on the number of identified forms during this work and reproducibility of the salt screen target patterns.

[6] = Qualitative solubility of free base in 50 solvents; type: physicochemical; conditions: for Qualitative solubility in solvents: organic solvents, 50 solvents studied
Text: The solubility of compound of Formula (1) was first qualitatively studied in 50 solvents. In all SAS experiments, the amorphous free base of compound of formula (1) was obtained after evaporation of the experiments.

[7] = pKa estimate; type: physicochemical; conditions: free base

Cc1ccccc1-c1cc(N2CCN(C)CC2)ncc1C(=O)N(C)Cc1cc(C(F)(F)F)cc(C(F)(F)F)c1 [Compound of formula (1) 2HCl salt]
Solubility in 1-propanol ([1]; 1-propanol, sparingly soluble): 10000 to 30000 µg/mL | Solubility in acetonitrile ([1]; acetonitrile, sparingly soluble): 10000 to 30000 µg/mL | Solubility in ethanol ([1]; ethanol, freely soluble): 100000 to 200000 µg/mL | pH [2]: 2 to 3 | Hydroscopicity (Water sorption at 90% RH) [3]: 3.2% | Appearance (white to yellow powder) ([4]; 0 months): Complies | Assay (% "as is") ([4]; 0 months): 95.0% | Assay (% anhydrous) ([4]; 0 months): 100.0% | Related Substances: Any other unknown ([4]; 0 months): RRT 0.89: 0.007% | Related Substances: Intermediate 3 ([4]; 0 months): Int 3: 0.69% | Related Substances: RRT - 0.89 ([4]; 0 months): RRT 0.85: 0.34% | Related Substances: RRT - 1.27 ([4]; 0 months): RRT 1.27: 0.27% | Related Substances: Total Impurities ([4]; 0 months): 1.37% | Water Content ([4]; 0 months): 5.0% | pH ([4]; 0 months): 2.31 | Appearance (white to yellow powder) ([4]; 1 month): Complies | Assay (% "as is") ([4]; 1 month): 94.8% | Assay (% anhydrous) ([4]; 1 month): 99.8% | Related Substances: Any other unknown ([4]; 1 month): RRT 0.90: 0.07% | Related Substances: Intermediate 3 ([4]; 1 month): Int 3: 0.71% | Related Substances: RRT - 0.89 ([4]; 1 month): RRT 0.89: 0.36% | Related Substances: RRT - 1.27 ([4]; 1 month): RRT 1.28: 0.27% | Related Substances: Total Impurities ([4]; 1 month): 1.41% | Water Content ([4]; 1 month): 4.99% | pH ([4]; 1 month): 2.39 | Appearance (white to yellow powder) ([4]; 3 months): Complies | Assay (% "as is") ([4]; 3 months): 94.5% | Assay (% anhydrous) ([4]; 3 months): 100.1% | Related Substances: Any other unknown ([4]; 3 months): RRT 0.91: 0.05% | Related Substances: Intermediate 3 ([4]; 3 months): Int 3: 0.71% | Related Substances: RRT - 0.89 ([4]; 3 months): RRT 0.90: 0.36% | Related Substances: RRT - 1.27 ([4]; 3 months): RRT 1.27: 0.26 | Related Substances: Total Impurities ([4]; 3 months): 1.38% | Water Content ([4]; 3 months): 5.58% | pH ([4]; 3 months): 2.33 | Appearance (white to yellow powder) ([4]; 6 months): Complies | Assay (% "as is") ([4]; 6 months): 94.6% | Assay (% anhydrous) ([4]; 6 months): 99.7% | Related Substances: Any other unknown ([4]; 6 months): RRT 0.91: 0.06% | Related Substances: Intermediate 3 ([4]; 6 months): Int 3: 0.71% | Related Substances: RRT - 0.89 ([4]; 6 months): RRT 0.90: 0.35% | Related Substances: RRT - 1.27 ([4]; 6 months): RRT 1.27: 0.27% | Related Substances: Total Impurities ([4]; 6 months): 1.39% | Water Content ([4]; 6 months): 5.17% | pH ([4]; 6 months): 2.47 | Appearance (white to yellow powder) ([4]; Initial Release): Complies | Assay (% "as is") ([4]; Initial Release): 98.3% | Assay (% anhydrous) ([4]; Initial Release): 99.3% | Related Substances: Intermediate 3 ([4]; Initial Release): Int 3: 0.71% | Related Substances: RRT - 0.89 ([4]; Initial Release): RRT 0.87: 0.35% | Related Substances: RRT - 1.27 ([4]; Initial Release): RRT 1.27: 0.28% | Related Substances: Total Impurities ([4]; Initial Release): 1.34% | Water Content ([4]; Initial Release): 1.0% | pH ([4]; Initial Release): 2.31 | Polymorphism [5]: Not detectable

Cc1ccccc1-c1cc(N2CCN(C)CC2)ncc1C(=O)N(C)Cc1cc(C(F)(F)F)cc(C(F)(F)F)c1 [Compound of Formula (1), N-{[3,5-Bis(trifluoromethyl)phenyl]methyl}-N-methyl-4-(2-methylphenyl)-6-(4-methyl-1-piperazinyl)-3-pyridinecarboxamide]
Qualitative solubility in solvents [6]: very soluble or soluble in many solvents | Qualitative solubility in solvents ([6]; listed as free base): very soluble or soluble in almost all solvents | Behaviour of water as solvent ([6]; water): antisolvent | pKa ([7]; read-out: pKa 1 (estimate)): 7.54 | pKa ([7]; read-out: pKa 2 (estimate)): 4.05
